Assay results from patent US20030077709A1 (priority 2000, published 2003).

Tests used:
[1] = tested on: control vector-introduced CHO cells; assay: cAMP production test toward LTB4 in control vector-introduced CHO cells; type: cell-based; details: 1 μM forskolin, 0 to 1 μM LTB4
Description: The CHO-dhfr(−) strain was inoculated at a density of 1×10^6 cells into a 10 cm Petri dish containing αMEM (supplemented with nucleic acids) medium/10% fetal bovine serum and cultured for 1 day and then subjected to gene transfer of 8 μg of pEF-BOS-dhfr-Jul22 and pEF-BOS-dhfr (control vector) using FuGENE6 (mfd. by Boehringer Mannheim). The gene-transferred cells were recovered 24 hours thereafter, suspended in αMEM (nucleic acid-free) medium/100 nM methotrexate (mfd. by Wako Pure Chemical Industries)/10% fetal bovine serum and then serially diluted and inoculated again into the 10 cm Petri dish. Colonies formed after 2 weeks were separately isolated and used as JULF2 stably expressing CHO cells.
Each of the JULF2 stably expressing CHO cells and control vector-introduced CHO cells was inoculated into a 24 well plate at a density of 1×10^5 cells. […] After 30 minutes at 37° C., the culture supernatant was discarded and the cells were lysed using a cAMP EIA System (BIOTRAK; mfd. by Amersham) cell lysis solution.
Measurement of the produced amount of cAMP in cells under each condition was carried out using the cAMP EIA System in accordance with the attached protocol. […] On the other hand, changes in the produced amount of cAMP by the addition of LTB4 were not found in the control vector-introduced CHO cells.

[2] = tested on: JULF2 stably expressing CHO cells; assay: Cell migration test of JULF2 stably expressing CHO cells toward LTB4; type: cell-based, human
Description: (§1) A 8 μm pore polycarbonate frame filter (mfd. by Neuroprobe) was treated with 10 μg/ml fibronectin (Asahi Technoglass)/PBS at 4° C. overnight. […] After 4 hours of culturing at 37° C. in a CO2 incubator, the frame filter was fixed with methanol and stained with Diff-Quik Staining Kit (International Reagents Corporation). The upper surface of this filter (the side on which cells were set) was wiped and air-dried and then absorbance at 595 nm was measured using a plate reader (Molecular Devices). Also, in order to examine pertussis toxin (PTX) sensitivity of the JULF2 stably expressing CHO cells, JULF2 stably expressing CHO cells treated with 50 ng/ml PTX for 20 hours were subjected to a cell migration test (FIG. 2).

[3] = tested on: rat JULF2 stably expressing CHO cell; assay: Cell migration test of rat JULF2 stably expressing CHO cell toward LTB4; type: cell-based; details: same method of Example 6
Description: as §1

JULF2 [4] = target: T1, JULF2 (Homo sapiens, UniProt Q9NPC1); assay: Screening of compounds which inhibit cAMP inhibition action by LTB4 using JULF2 stably expressing CHO cell; type: cell-based
T1 construct: expressed in transfected cells
T1 sequence (Q9NPC1 1-358): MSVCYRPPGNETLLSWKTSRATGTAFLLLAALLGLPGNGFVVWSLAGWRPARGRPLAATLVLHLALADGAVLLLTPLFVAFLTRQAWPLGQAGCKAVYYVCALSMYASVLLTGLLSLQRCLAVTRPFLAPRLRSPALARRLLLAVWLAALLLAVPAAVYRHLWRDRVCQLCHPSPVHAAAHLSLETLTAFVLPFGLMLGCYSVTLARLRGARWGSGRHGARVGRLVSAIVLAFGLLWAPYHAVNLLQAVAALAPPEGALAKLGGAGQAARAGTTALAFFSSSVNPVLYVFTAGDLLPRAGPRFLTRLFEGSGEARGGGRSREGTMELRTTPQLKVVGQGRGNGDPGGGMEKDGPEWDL
From the text: The compound A, compound B and compound C are commercially available reagents, and compound A is on the market as a code number 0199-0032 of ChemDiv, Inc, and compound B as a code number TPB-488 of InterBioScreen. […] In this connection, the property of the compound A to show anti-inflammatory effect is also described in Biochemical Pharmacology, 51, 737-742, 1996.

[5] = tested on: JULF2 stably expressing CHO cell; assay: Cell migration inhibition by JULF2 antagonist for migration of JULF2 stably expressing CHO cell toward LTB4; type: cell-based, human; details: compound 0.03 to 100 μM in upper layer, 100 nM LTB4 in lower layer
Description: as §1

JULF2 [6] = target: T1, JULF2; assay: Inhibition of binding of [3H]LTB4 to JULF2 expressing cell membrane fraction
Description: The DNA fragment obtained in Example 1 coding for JULF2 was digested with XbaI and then cloned into pCEP4 (mfd. by Invitrogen) to be used as an expression vector (pCEP4-JULF2) for expressing JULF2. HEK293-EBNA strain was inoculated into a 15 cm Petri dish at a density of 5×10^6 cells and cultured for 1 day, and then 20 μg of pCEP4-JULF2 was subjected to gene transfer using Lipofectamine-2000 (mfd. by Gibco BRL). The gene-transferred cells were recovered 24 hours thereafter, washed, suspended in 20 mM Tris-HCl (pH 7.4)/5 mM EDTA and then homogenized using Polytron. After ultracentrifugation, the sediment was suspended in 20 mM Tris-HCl (pH 7.4) and used as a membrane fraction.
A liquid scintillation was added to the glass filter and the radioactivity was measured using a liquid scintillation counter.

CCCCC/C=C\C[C@@H](O)/C=C/C=C/C=C\[C@@H](O)CCCC(=O)O [LTB4, leukotriene B4]
changes in the produced amount of cAMP by the addition of LTB4 [1]: not found
LTB4 concentration at which the migration activity becomes maximum (bell type chemotaxis) ([2]; JULF2 stably expressing CHO cells, 4 hours at 37° C., LTB4 in lower layer): 30 nM
LTB4 concentration at which the migration activity becomes maximum (bell type chemotaxis) [3]: 100 nM

pertussis toxin [PTX]
inhibition of migration toward LTB4 by PTX pretreatment ([2]; JULF2 stably expressing CHO cells treated with 50 ng/ml PTX for 20 hours): completely inhibited

CCCCCCCCOc1ccc(C(=N)N)cc1.Cl [compound A, 4-octyloxybenzenecarboximidoamide hydrochloride]
IC50 (JULF2 [4]): 0.4 µM
inhibition of cell migration toward LTB4 [5]: inhibit cell migration toward LTB4 in a dose-dependent manner
IC50 (JULF2 [6]): 0.1 µM

CCCCCCOc1ccc(C(=N)NO)cc1 [compound B, 4-hexyloxy-N-hydroxybenzenecarboximidoamide]
IC50 (JULF2 [4]): 6.7 µM
inhibition of cell migration toward LTB4 [5]: inhibit cell migration toward LTB4 in a dose-dependent manner
IC50 (JULF2 [6]): 5.7 µM
